We go through eleven compounds from ChEMBL document CHEMBL1201862, “PubChem BioAssay data set” (2004).

Experiment in all cases: growth of human tumour cells (NCI), 48 h
The subject of test [1] is ACHN.
Test [2] relates to HCC 2998.
In test [3] the test system is HCT-116.
Test [4] has as its system HL-60.
The test system of test [5] is HOP-62.
Test [6] has as its system HT-29.
Test [7] has as its system KM12.
Test [8] concerns LOX IMVI.
Test [9] deals with M14.
Test [10] concerns Malme-3M.
In test [11] the test system is NCI-H460.
The subject of test [12] is OVCAR-3.
The test system of test [13] is OVCAR-8.
Test [14] concerns RXF 393.
Test [15] deals with SF-295.
Test [16] relates to SK-MEL-28.
Test [17] has as its system SN12C.
Test [18] relates to SNB-75.
Test [19] deals with UACC-62.

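Each compound was tested at five concentrations against cells in 96-well plates for 48 hours. Abbreviation: GI50, concentration required for 50% inhibition of growth.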 Calls of active or inactive are those of the source. Rule as the data show it: active = GI50 up to about 1.1 µM and inactive = higher.

`Cn1cc(C(=O)c2ccccc2)ccc1=O`: the GI50 in test [1], in test [2], in test [3], in test [4], in test [5] and in test [6] was > 100 µM (inactive) throughout. Besides, the GI50 in test [7], in test [8], in test [9], in [10], in test [11] and in [12] was > 100 µM (inactive) throughout. Further, the GI50 in test [13], in [14], in [15], in [16], in [17] and in test [18] was > 100 µM (inactive) in each case. Besides, the GI50 in test [19] is > 100 µM (inactive).
As for `COc1ccc(Nc2nc3ccccc3nc2-c2cccs2)cc1`, the GI50 in test [1] is > 100 µM (inactive); in test [2], 75 µM (inactive); in test [3] it was > 100 µM (inactive); in [4], 17.5 µM (inactive); in test [5] it was 69.7 µM (inactive); in [7], > 100 µM (inactive). Further, the GI50 was > 100 µM (inactive) in test [8]; 47.1 µM (inactive) in test [9]; > 100 µM (inactive) in test [10]; 79.4 µM (inactive) in test [11]; > 100 µM (inactive) in test [12]; > 100 µM (inactive) in [13]. Moreover, the GI50 in test [14] is > 100 µM (inactive); in test [15], 70.6 µM (inactive); in test [16] it was > 100 µM (inactive); in [17] it was > 100 µM (inactive); in test [18], 28.6 µM (inactive); in test [19] it was > 100 µM (inactive).
Consider `C1CCC(OCc2nnn3c2CCC3)OC1` (stereo unspecified), for which the GI50 in [1], in test [2], in test [3], in test [4], in [5] and in test [6] was > 100 µM (inactive) each time. In addition, the GI50 in test [7], in test [8], in test [9], in test [10], in [11] and in test [12] was > 100 µM (inactive) in each case. For the same compound, the GI50 in test [13], in test [14], in test [15], in test [16], in test [17] and in test [18] was > 100 µM (inactive) in each case. The GI50 in test [19] is > 100 µM (inactive).
For the compound `OCc1ccccc1C1CSCSC1`, the GI50 in [1], in [3], in [4], in test [6], in [7] and in [8] was > 100 µM (inactive) throughout. Also, the GI50 in test [10], in test [11], in test [12], in test [13], in test [14] and in test [15] was > 100 µM (inactive) throughout. The GI50 in test [16], in test [17], in [18] and in test [19] was > 100 µM (inactive) each time.
As for `CCCCCCCCCC/C=C/C=O`, the GI50 in test [1] is > 100 µM (inactive); in [2], > 100 µM (inactive); in test [3], > 100 µM (inactive); in [4], 56.1 µM (inactive); in [6] it was > 100 µM (inactive); in [7] it was > 100 µM (inactive). Moreover, the GI50 in test [8], in [9], in [10], in test [11], in test [12] and in test [13] was > 100 µM (inactive) in each case. The GI50 in [14], in test [15], in test [16], in [17], in test [18] and in test [19] was > 100 µM (inactive) each time.
As for `CC1=C2[C@@H](c3ccccc3)C3C=CC2(C=C3C(F)(F)F)N(C(=O)NC2CCCCC2)C1=O` (stereo partly specified), the GI50 in test [1] was > 100 µM (inactive); in test [2], 38.9 µM (inactive); in test [3], 32.4 µM (inactive); in test [4] it was 14.8 µM (inactive); in [5], 68.1 µM (inactive); in [6], 72.9 µM (inactive). In addition, the GI50 in test [7] was 72.6 µM (inactive); in test [8] it was 44 µM (inactive); in test [9], 81.3 µM (inactive); in test [10] it was > 100 µM (inactive); in test [11], > 100 µM (inactive); in test [12], > 100 µM (inactive). The GI50 in test [13], in [14], in test [15], in test [16], in test [17] and in test [18] was > 100 µM (inactive) each time. Moreover, in [19], the GI50 is > 100 µM (inactive).
Consider `Cc1ccc(-c2c(C#N)c(N)nc3c2CCS(=O)(=O)c2ccccc2-3)cc1`, for which the GI50 in test [1] is 52.4 µM (inactive); in test [2] it was > 100 µM (inactive); in [3], > 100 µM (inactive); in test [6] it was > 100 µM (inactive); in test [7] it was > 100 µM (inactive); in test [8] it was > 100 µM (inactive). The GI50 in [10] is 39.4 µM (inactive); in test [11] it was > 100 µM (inactive); in test [13], 41 µM (inactive); in test [16], 72.4 µM (inactive); in [17], 81.8 µM (inactive); in test [18], 20.6 µM (inactive). Further, in test [19], the GI50 is 57.3 µM (inactive).
As to `COc1cc2oc(-c3ccc(O)cc3)cc(=O)c2c(O)c1C1OC(CO)C(O)C(O)C1O` (stereo unspecified), the GI50 in test [1], in [2], in test [3], in test [4], in test [5] and in test [6] was > 100 µM (inactive) in each case. In addition, the GI50 in test [7], in [8], in [9], in test [10], in test [11] and in test [12] was > 100 µM (inactive) throughout. Also, the GI50 in test [13], in [15], in test [16], in test [17], in [18] and in test [19] was > 100 µM (inactive) in each case.
Turning to `CCOC(=O)C1(Cc2ccc3ccccc3c2)CCCCC(=O)N1` (stereo unspecified), the GI50 in test [1] was 67.5 µM (inactive); in [2], 8.67 µM (inactive); in [4] it was 12.1 µM (inactive); in test [5], 44.6 µM (inactive); in test [6], 30.8 µM (inactive); in [8], 24.1 µM (inactive). Moreover, the GI50 is 39.3 µM (inactive) in test [9]; 11.9 µM (inactive) in test [10]; 25.7 µM (inactive) in test [11]; 17.5 µM (inactive) in test [12]; 55.5 µM (inactive) in [13]; > 100 µM (inactive) in [14]. The GI50 is 8.89 µM (inactive) in [15]; 41 µM (inactive) in [16]; 44.5 µM (inactive) in test [17]; 0.286 µM (active) in [18]; 36.1 µM (inactive) in test [19].
Take `O=C(/C(=C/c1ccc(O)cc1)c1ccccc1)c1ccccc1`: the GI50 in test [1] was 16.1 µM (inactive); in test [2], 17.4 µM (inactive); in test [3], 16.7 µM (inactive); in test [4] it was 13.6 µM (inactive); in [5], 19.3 µM (inactive); in test [6] it was 18.1 µM (inactive). Also, the GI50 in [7] is 15.7 µM (inactive); in [8], 13.2 µM (inactive); in test [9], 17.1 µM (inactive); in [10], 19 µM (inactive); in test [11] it was 18.7 µM (inactive); in [13], 27 µM (inactive). Moreover, the GI50 in test [15] was 16.1 µM (inactive); in test [16] it was 17.9 µM (inactive); in test [17], 18.4 µM (inactive); in test [18], 16.7 µM (inactive); in test [19], 14.1 µM (inactive).
Turning to `CCCCN(CC)c1nc(C)nc2c1c(C)c(C)n2-c1c(C)cc(C)cc1C` [ANTALARMIN], the GI50 in test [1] is 14.9 µM (inactive); in [3], 10.1 µM (inactive); in test [4], 4.1 µM (inactive); in [5], 17.2 µM (inactive); in test [6], 10.5 µM (inactive); in test [7] it was 17.6 µM (inactive). Moreover, the GI50 in [8] was 15.6 µM (inactive); in test [9], 17.9 µM (inactive); in [10] it was 15.9 µM (inactive); in test [11], 13.2 µM (inactive); in test [12], 13.3 µM (inactive); in [13], 14.2 µM (inactive). In addition, the GI50 is 6.93 µM (inactive) in test [14]; 14.3 µM (inactive) in test [15]; 15.8 µM (inactive) in test [16]; 22 µM (inactive) in test [17]; 14.3 µM (inactive) in test [18].
